The source of these data is ChEMBL document CHEMBL1126805, “Synthesis and evaluation of a series of benzylaniline hydrochlorides as potential cytotoxic and antimitotic agents acting by inhibition of tubulin polymerization” (J Med Chem, 1993).

The test system of one assay is COLO 205. Description: Tested for cytotoxicity against COLO 205 (colon cancer) cell line. It is filed as functional, Homo sapiens.
The next assay has as its target Tubulin (Bos taurus, UniProt Q6B856+Q862F3). Description: In vitro inhibition of bovine electrophoretically homogeneous tubulin polymerization. It is filed as functional.
The subject of a further assay is M14. The experiment in a line: Tested for cytotoxicity against M14 melanoma. It is filed as functional, Homo sapiens.
The next assay concerns OVCAR-3. The experiment in a line: Tested for cytotoxicity against OVCAR-3 (ovarian cancer) cell line. It is filed as functional, Homo sapiens.
A further assay deals with CAKI-1. The experiment in a line: Tested for cytotoxicity against CAKI-1 renal cancer. It is filed as functional, Homo sapiens.
The next assay relates to DMS-273. The experiment in a line: Tested for cytotoxicity against DMS 273 (small-cell lung cancer) cell line. It is filed as functional, Homo sapiens.
Another assay relates to SF-295. The experiment in a line: In vitro cytotoxicity against SF-295 (CNS cancer) cell line. It is filed as functional, Homo sapiens.
For a further assay, the system named is NCI-H522. Description: Tested for cytotoxicity against NCI-H522 (non-small-cell lung cancer) cell line. It is filed as functional, Homo sapiens.
In another assay the test system is HL-60. The experiment in a line: Tested for cytotoxicity against human cancer cell lines HL-60(TB) (leukemia) cell line. It is filed as functional.

Molecules are shown by their SMILES. Where only a bound is given, the exact number is not on record here.

Chain of Tubulin (Q6B856 whole entry): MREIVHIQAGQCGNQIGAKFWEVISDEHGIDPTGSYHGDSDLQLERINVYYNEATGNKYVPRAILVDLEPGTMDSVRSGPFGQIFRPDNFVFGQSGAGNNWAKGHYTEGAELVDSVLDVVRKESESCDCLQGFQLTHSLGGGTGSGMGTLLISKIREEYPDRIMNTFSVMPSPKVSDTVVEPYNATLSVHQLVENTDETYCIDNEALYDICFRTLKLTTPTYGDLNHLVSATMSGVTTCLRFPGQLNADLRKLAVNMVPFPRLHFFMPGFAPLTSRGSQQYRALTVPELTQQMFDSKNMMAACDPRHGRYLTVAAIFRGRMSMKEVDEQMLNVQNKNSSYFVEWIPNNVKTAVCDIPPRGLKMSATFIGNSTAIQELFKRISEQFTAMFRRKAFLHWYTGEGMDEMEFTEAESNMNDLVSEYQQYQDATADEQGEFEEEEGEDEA
Chain of Tubulin (Q862F3 whole entry): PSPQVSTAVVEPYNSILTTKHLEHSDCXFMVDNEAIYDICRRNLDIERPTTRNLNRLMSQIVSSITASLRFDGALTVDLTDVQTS

In general, GI50 refers to the concentration that inhibits growth by half. Read a high GI50 as lower sensitivity of the cells. The term IC50 denotes the point on the concentration scale where inhibition reaches its midpoint. A high value points to lower potency. `COc1cc(CNc2ccc(SC)cc2)cc(OC)c1OC` [listing 1 of 2 here]: the GI50 with COLO 205 turned out to be 3600 nM; with M14 it was 4840 nM; in the assay on OVCAR-3, 4850 nM; in the assay on CAKI-1, 16300 nM; in the assay with DMS-273 it was 4910 nM; in the assay with SF-295, 3410 nM. Further, the 50% growth inhibitory concentration (GI50) in the assay with NCI-H522 was found to be 2950 nM; with HL-60, 3290 nM. Also, half-maximal inhibition against Tubulin (IC50) required 16000 nM.

For `CCc1ccc(NCc2cc(OC)c(OC)c(OC)c2)cc1` [listing 1 of 2 here], the GI50 was found to be 344 nM in the assay on COLO 205 (Homo sapiens, COLO 205); 315 nM in the assay with M14 (Homo sapiens, M14); 283 nM with OVCAR-3 (Homo sapiens, OVCAR-3); 354 nM with CAKI-1 (Homo sapiens, CAKI-1); 135 nM in the assay with DMS-273; 266 nM in the assay with SF-295 (Homo sapiens, SF-295). Also, the GI50 amounted to 234 nM in the assay with NCI-H522 (Homo sapiens, NCI-H522) and 168 nM in the assay with HL-60 (Homo sapiens, HL-60). In addition, the IC50 at Tubulin came out at 3000 nM.

Consider `CCCc1ccc(NCc2cc(OC)c(OC)c(OC)c2)cc1`, for which the IC50 at Tubulin is > 40000 nM. In addition, the GI50 with DMS-273 (Homo sapiens, DMS-273) was 16200 nM.

With `COc1cc(/C=N/c2ccc(C(C)C)cc2)cc(OC)c1OC`, the concentration for 50% growth inhibition (GI50) is > 100000 nM in the assay with COLO 205 (Homo sapiens, COLO 205); > 100000 nM in the assay with M14 (Homo sapiens, M14); > 100000 nM with OVCAR-3 (Homo sapiens, OVCAR-3); > 100000 nM in the assay with CAKI-1 (Homo sapiens, CAKI-1); 52500 nM in the assay on DMS-273 (Homo sapiens, DMS-273); > 100000 nM in the assay on SF-295 (Homo sapiens, SF-295). Besides, the concentration for 50% growth inhibition (GI50) in the assay with NCI-H522 (Homo sapiens, NCI-H522) was > 100000 nM; in the assay with HL-60 (Homo sapiens, HL-60), > 100000 nM. Moreover, the concentration for half-maximal inhibition (IC50) at Tubulin is > 40000 nM.

With `COc1cc(CNc2ccc(C(C)C)cc2)cc(OC)c1OC`, the IC50 on Tubulin was > 40000 nM. The same molecule registered a GI50 with DMS-273 (Homo sapiens, DMS-273) of 12900 nM.

Regarding `COc1ccc(/N=C/c2cc(OC)c(OC)c(OC)c2)cc1`, the IC50 on Tubulin is > 40000 nM. Also, the 50% growth inhibitory concentration (GI50) with OVCAR-3 (Homo sapiens, OVCAR-3) is > 100000 nM; in the assay with CAKI-1 (Homo sapiens, CAKI-1), > 100000 nM; with DMS-273 (Homo sapiens, DMS-273), 33000 nM; in the assay with NCI-H522 (Homo sapiens, NCI-H522), > 100000 nM.

Take `CCc1ccc(/N=C/c2cc(OC)c(OC)c(OC)c2)cc1`: on Tubulin, the IC50 was > 40000 nM. Further, the GI50 was > 100000 nM in the assay with M14 (Homo sapiens, M14); > 100000 nM with OVCAR-3 (Homo sapiens, OVCAR-3); > 100000 nM in the assay with CAKI-1 (Homo sapiens, CAKI-1); > 100000 nM in the assay on DMS-273 (Homo sapiens, DMS-273); > 100000 nM with SF-295 (Homo sapiens, SF-295); > 100000 nM with NCI-H522 (Homo sapiens, NCI-H522).

With `COc1cc(CNc2ccc(SC)cc2)cc(OC)c1OC` [listing 2 of 2 here], the concentration for 50% growth inhibition (GI50) stood at 3880 nM in the assay on COLO 205 (Homo sapiens, COLO 205); 5260 nM with M14 (Homo sapiens, M14); 5930 nM in the assay on OVCAR-3 (Homo sapiens, OVCAR-3); 32000 nM in the assay with CAKI-1 (Homo sapiens, CAKI-1); 3090 nM in the assay with DMS-273 (Homo sapiens, DMS-273); 7280 nM in the assay on SF-295. The GI50 was 4680 nM in the assay on NCI-H522 (Homo sapiens, NCI-H522) and 3700 nM in the assay with HL-60 (Homo sapiens, HL-60). Further, the half-inhibitory concentration (IC50) against Tubulin is > 40000 nM.

In the case of `COc1ccc(NCc2cc(OC)c(OC)c(OC)c2)cc1` [listing 1 of 2 here], the GI50 in the assay with COLO 205 stood at 235 nM; in the assay with OVCAR-3, 363 nM; in the assay with CAKI-1 it was 458 nM; in the assay on DMS-273, 141 nM; in the assay on SF-295, 266 nM; in the assay with NCI-H522 it was 412 nM. Moreover, the GI50 in the assay with HL-60 was 115 nM. The same molecule had a half-maximal inhibitory concentration (IC50) at Tubulin of 4600 nM.

Regarding `COc1cc(CNc2ccc(C)cc2)cc(OC)c1OC`, the GI50 was determined as 152 nM in the assay with COLO 205 (Homo sapiens, COLO 205); 150 nM in the assay on M14 (Homo sapiens, M14); 184 nM in the assay on OVCAR-3 (Homo sapiens, OVCAR-3); 192 nM with CAKI-1 (Homo sapiens, CAKI-1); 92.6 nM in the assay with DMS-273 (Homo sapiens, DMS-273); 163 nM in the assay on SF-295 (Homo sapiens, SF-295). Also, the 50% growth inhibitory concentration (GI50) in the assay with HL-60 is 122 nM. On Tubulin, the midpoint of inhibition, the IC50, lay at 6000 nM.

With `CCCc1ccc(/N=C/c2cc(OC)c(OC)c(OC)c2)cc1`, the GI50 was > 100000 nM with COLO 205 (Homo sapiens, COLO 205); > 100000 nM in the assay on M14 (Homo sapiens, M14); > 100000 nM with OVCAR-3 (Homo sapiens, OVCAR-3); > 100000 nM in the assay with CAKI-1 (Homo sapiens, CAKI-1); > 100000 nM with DMS-273 (Homo sapiens, DMS-273); > 100000 nM in the assay with SF-295 (Homo sapiens, SF-295). The concentration for 50% growth inhibition (GI50) in the assay on NCI-H522 (Homo sapiens, NCI-H522) was > 100000 nM; in the assay on HL-60 (Homo sapiens, HL-60) it was 22600 nM. In addition, the half-inhibitory concentration (IC50) at Tubulin was > 40000 nM.

For `CCOc1ccc(NCc2cc(OC)c(OC)c(OC)c2)cc1` [listing 1 of 2 here], the 50% growth inhibitory concentration (GI50) with COLO 205 (Homo sapiens, COLO 205) stood at 432 nM; with M14 (Homo sapiens, M14) it was 403 nM; with OVCAR-3 (Homo sapiens, OVCAR-3) it was 340 nM; in the assay on CAKI-1 (Homo sapiens, CAKI-1) it was 2040 nM; with DMS-273, 296 nM; in the assay with SF-295 (Homo sapiens, SF-295), 274 nM. Besides, the GI50 stood at 380 nM in the assay with NCI-H522 (Homo sapiens, NCI-H522) and 296 nM in the assay with HL-60 (Homo sapiens, HL-60). The molecule also gave a 50% inhibitory concentration (IC50) on Tubulin of 12000 nM.

For `COc1ccc(NCc2cc(OC)c(OC)c(OC)c2)cc1` [listing 2 of 2 here], the 50% growth inhibitory concentration (GI50) was 1660 nM in the assay with COLO 205; 2380 nM in the assay on M14 (Homo sapiens, M14); 1960 nM in the assay with OVCAR-3; 2500 nM with CAKI-1; 534 nM with DMS-273; 2320 nM with SF-295. Besides, the concentration for 50% growth inhibition (GI50) in the assay with NCI-H522 was determined as 2760 nM; in the assay on HL-60, 834 nM. The same molecule gave a half-maximal inhibitory concentration (IC50) against Tubulin of 8900 nM.

Turning to `CCOc1ccc(NCc2cc(OC)c(OC)c(OC)c2)cc1` [listing 2 of 2 here], the GI50 in the assay on COLO 205 came to 538 nM; in the assay with M14 it was 532 nM; with OVCAR-3 it was 464 nM; in the assay with CAKI-1, 1050 nM; with DMS-273, 961 nM; in the assay with SF-295, 418 nM. Further, the GI50 in the assay with NCI-H522 turned out to be 574 nM; in the assay on HL-60, 448 nM. This molecule showed an IC50 at Tubulin of 11000 nM.

Turning to `CCOc1ccc(/N=C/c2cc(OC)c(OC)c(OC)c2)cc1`, on Tubulin, the IC50 is > 40000 nM. Further, the 50% growth inhibitory concentration (GI50) with M14 (Homo sapiens, M14) was > 100000 nM; with OVCAR-3 (Homo sapiens, OVCAR-3), > 100000 nM; in the assay with CAKI-1 (Homo sapiens, CAKI-1) it was > 100000 nM; in the assay on DMS-273 (Homo sapiens, DMS-273), > 100000 nM; with SF-295 (Homo sapiens, SF-295), > 100000 nM; with NCI-H522 (Homo sapiens, NCI-H522), > 100000 nM. Besides, the GI50 with HL-60 (Homo sapiens, HL-60) is > 100000 nM.

In turn, `COc1ccc(/C=C\c2cc(OC)c(OC)c(OC)c2)cc1` yielded a 50% inhibitory concentration (IC50) at Tubulin of 2000 nM. This lies in the single-digit micromolar range.

On to `CCc1ccc(NCc2cc(OC)c(OC)c(OC)c2)cc1` [listing 2 of 2 here], for which the GI50 was found to be 352 nM in the assay with COLO 205; 437 nM with M14; 405 nM with OVCAR-3; 818 nM in the assay with DMS-273; 339 nM with SF-295; 371 nM with NCI-H522. Besides, the 50% growth inhibitory concentration (GI50) in the assay with HL-60 is 245 nM. Also, the midpoint of inhibition on Tubulin, the IC50, lay at 7200 nM.
